Assay results: patent publication US20250135021A1, “USE OF ANTIBODY-DRUG CONJUGATE, AND COMBINED DRUG AND USE THEREOF” (SHANGHAI MIRACOGEN INC., priority 2021, published 2025)

What was measured:
[1] = test system: AZD9291-resistant human adenosquamous carcinoma of the lung PDX model LUN #2441-118; experiment: Efficacy in AZD9291-resistant human lung cancer PDX model LUN #2441-118; format: in vivo, immunodeficient mice; details: Day 25
Text: (§1) The human-derived tumor tissue xenograft model (PDX model) is a tumor model established in immunodeficient mice using human tumor tissue, which retains the heterogeneity, molecular diversity and histological characteristics of the primary tumor to the greatest extent. It has a high predictive value for the clinical therapeutic effect of drugs and has been increasingly used in cancer research (Hidalgo-2014) in recent years. […] In all experiments, the commercially available third-generation EGFR inhibitor AZD9291 was used as a reference drug to compare tumor inhibition activities.
(§2) LUN #2441-118 is an AZD9291-resistant human adenosquamous carcinoma of the lung PDX model. […] During the entire experiment, ADC-3 was administered four times in total, via tail vein injection on Day 0, Day 4, Day 8, and Day 12, and AZD9291 was administered 28 times in total, once a day by intragastric administration. The experiment period was 28 days. […] Tumor-bearing mice had good tolerance to the tested drugs.

[2] = test system: AZD9291-resistant human adenosquamous carcinoma of the lung PDX model LUN #2210-106; experiment: Efficacy in AZD9291-resistant human lung cancer PDX model LUN #2210-106; format: in vivo, immunodeficient mice; details: Day 30
Text: as §1
(§3) LUN #2210-106 is an AZD9291-resistant human adenosquamous carcinoma of the lung PDX model. This experiment was performed in total of 4 groups, including a Vehicle group (ADC-3 vehicle), an AZD9291 administration group (5 mg/kg), and ADC-3 administration groups (1 mg/kg and 3 mg/kg). During the entire experiment, ADC-3 was administered four times in total, via tail vein injection on Day 0, Day 4, Day 8, and Day 12, and AZD9291 was administered 30 times in total, once a day by intragastric administration. […] Tumor-bearing mice had good tolerance to the tested drugs.

[3] = test system: AZD9291-resistant human large cell lung carcinoma PDX model LUN #2355-128; experiment: Efficacy in AZD9291-resistant human lung cancer PDX model LUN #2355-128; format: in vivo, immunodeficient mice; details: Day 16
Procedure: as §1, with “extent.” for “extent. It has a high predictive value for the clinical therapeutic effect of drugs and has been increasingly used in cancer research (Hidalgo-2014) in recent years.”
This experiment was performed in total of 4 groups, including a Vehicle group (ADC-3 vehicle), an AZD9291 administration group (5 mg/kg), and ADC-3 administration groups (1 mg/kg and 3 mg/kg). During the entire experiment, ADC-3 was administered four times in total, via tail vein injection on Day 0, Day 4, Day 8, and Day 12, and AZD9291 was administered 27 times in total, once a day by intragastric administration. The experiment period was 27 days.

[4] = test system: AZD9291-resistant human lung adenocarcinoma PDX model LUN #2005-143; experiment: Efficacy in AZD9291-resistant human lung cancer PDX model LUN #2005-143; format: in vivo, immunodeficient mice; details: Day 29
Text: as §1
as §3, with “#2005-143” for “#2210-106”, “lung adenocarcinoma (a type” for “adenosquamous carcinoma”, “NSCLC)” for “the lung”, “29” for “30”, “In terms of body weight, all animals in the tested drug groups had good tolerance. […] In this experiment, tumor-bearing” for “Tumor-bearing”

[5] = test system: AZD9291-resistant human adenosquamous carcinoma of the lung PDX model LUN #2210-4a; experiment: Efficacy in AZD9291-resistant human lung cancer PDX model LUN #2210-4a; format: in vivo, immunodeficient mice; details: Day 28
Text: as §1
as §2, with “#2210-4a” for “#2441-118”, “administration.” for “administration. The experiment period was 28 days.”

[6] = test system: human lung cancer PDX model LUN #2210-106; experiment: Efficacy of MYK-3, AK103 and their combination in human lung cancer PDX model LUN #2210-106 in Hu-HSC-NPG mice; format: in vivo; details: Day 20
Procedure: LUN #2210-106 is an AZD9291-resistant human adenosquamous carcinoma of the lung PDX model. This experiment was performed in total of 4 groups, including a Vehicle group (ADC-3 vehicle), an ADC-3 administration group (1 mg/kg), an AK103 administration group (5 mg/kg), and an ADC-3 (1 mg/kg)+AK103 (5 mg/kg) administration group. During the entire experiment, ADC-3 was administered three times in total for the ADC-3 single-drug administration group, via tail vein injection on Day 0, Day 4, and Day 8; and AK103 was administered every three days via tail vein injection for the AK103 single-drug administration group, 8 times in total. For the ADC-3+AK103 administration group, ADC-3 was administered three times, and AK103 was administered ten times in total, and their administration modes were the same as those for the single-drug administration groups. The experiment period was 34 days. […] During the period from Day 20 to Day 34, the mean tumor volume of animals in the ADC-3 (1 mg/kg) administration group gradually resumed growth (from 184 mm^3 to 893 mm^3); the mean tumor volume of animals in the ADC-3 (1 mg/kg)+AK103 (5 mg/kg) administration group grew slowly (from 38 mm^3 to 126 mm^3), and on Day 34, complete tumor regression was still observed in 1 out of 6 animals.

[7] = 5 mg/kg intragastric once a day
[8] = AZD9291 dose 3 mg/kg in Table 4

Row | Compound | Relative tumor proliferation rate T/C (%) [1, 7] [%] | Tumor growth inhibition rate TGI % [1, 7] [%] | Relative tumor proliferation rate T/C (%) [1, 8] [%] | Tumor inhibition activity [1, 8] | Relative tumor proliferation rate T/C (%) [2, 7] [%] | Tumor growth inhibition rate TGI % [2, 7] [%] | Tumor inhibition activity ([2]; 5 mg/kg) | Relative tumor proliferation rate T/C (%) [3, 7] [%] | Tumor growth inhibition rate TGI % [3, 7] [%] | Tumor inhibition activity ([3]; 5 mg/kg) | Relative tumor proliferation rate T/C (%) [4, 7] [%] | Tumor growth inhibition rate TGI % [4, 7] [%] | Tumor inhibition activity ([4]; 5 mg/kg) | Relative tumor proliferation rate T/C (%) [5, 7] [%] | Tumor growth inhibition rate TGI % [5, 7] [%] | Tumor growth inhibition rate TGI % [5, 8] [%] | Tumor inhibition activity [5, 8] | Relative tumor proliferation rate T/C (%) ([6]; 5 mg/kg i.v. every three days) | Tumor growth inhibition rate TGI % ([6]; 5 mg/kg i.v. every three days) [%] | Tumor inhibition activity ([6]; 5 mg/kg)
1 | C=CC(=O)Nc1cc(Nc2nccc(-c3cn(C)c4ccccc34)n2)c(OC)cc1N(C)CCN(C)C [AZD9291, osimertinib, reference compound] | 29.35 | 70.65 | 29.35 | ++ (T/C (%) >20% and ≤40%) | 65.31 | 34.69 | + (T/C (%) >40%) | 33.61 | 66.39 | ++ (T/C (%) >20% and ≤40%) | 36.90 | 63.10 | ++ (T/C (%) >20% and ≤40%) | 68.99 | 31.01 | 31.01 | + (T/C (%) >40%) |  |  | 
2 | AK103: anti-PD-1 monoclonal antibody drug and immune checkpoint inhibitor |  |  |  |  |  |  |  |  |  |  |  |  |  |  |  |  |  | 93.61 | 6.39 | + (T/C (%) >40%)
